What was measured:
[1] = tested on: Ehrlich ascites carcinoma; assay: Preventive effect against the growth of Ehrlich ascites tumor (Method A); format: in vivo, mice (female ICR); conditions: for inhibition in vivo at 3.12 mg/kg: 3.12 mg/kg/day i.p.; for inhibition in vivo at 12.5 mg/kg: 12.5 mg/kg/day i.p.; for inhibition in vivo at 50 mg/kg: 50 mg/kg/day i.p.; for inhibition in vivo at 1.56 mg/kg: 1.56 mg/kg/day i.p.; for inhibition in vivo at 200 mg/kg: 200 mg/kg/day i.p.; for minimal effective dose: minimum dose with 100% inhibition of ascites tumor, unit from dose column, read-out: MED (Minimum Effective Dose); for inhibition in vivo at 0.78 mg/kg: 0.78 mg/kg/day i.p.
Experimental: (§1) (A) Preventive effect against the growth of Ehrlich ascites tumor:
(§2) 10^6 tumor cells of Ehrlich ascites carcinoma were inoculated intraperitoneally into a group of five femal mice (ICR mice, body weight: 19-23 g). A test compound was dissolved in a physiological saline solution [In the case where CCNU was employed as the test compound, said compound was suspended in a physiological saline solution containing 0.1% NIKKOL HCO-60 (trademark; a surface active agent manufactured by Nikko Chemicals Co. Ltd.)] and administered intraperioneally to the mice. The administration of the test compound was begun 24 hours after the inoculation of the tumor cells and performed once a day for 5 days. The volume of ascites in the treated mice were measured after 7 days of the experiment.
(§3) ^a T = the average volume of ascites in the treated mice
(§4) C = the average volume of ascites in the untreated mice (control group of
(§5) 100% inhibition for the growth of Ehrlich ascites tumor in mice without
(§6) causing the death of said mice)
(§7) 100% inhibition for the growth of said ascites tumor)
(§8) ^e Therapeutic index = MTD/MED
(§9) *the number of mice died/the number of mice used

[2] = as above; format: in vivo, mice (female ICR); conditions: mouse, in vivo, ip; maximum dose with 100% inhibition of Ehrlich ascites tumor without causing death; unit from dose column; read-out: MTD (Maximum Tolerated Dose)
Experimental: as §1, §2, §3, §4, §5, §6, §7, §8, §9

Leukemia L-1210 = assay: Effect on the life span of mice implanted with leukemic cells of L-1210 (Method B); format: in vivo, mice (male BDF1); conditions: Mus musculus, L1210, ip, once a day for 5 days; for ILS at 6.25 mg/kg / responders at 6.25 mg/kg: 6.25 mg/kg/day i.p.; for ILS at 25 mg/kg / responders at 25 mg/kg: 25 mg/kg/day i.p.; for ILS at 50 mg/kg / responders at 50 mg/kg: 50 mg/kg/day i.p.
Experimental: (B) Effect on the life span of mice implanted with leukemic cells of L-1210:
10^5 leukemic cells of L-1210 were inoculated intraperitoneally into a group of four or six male mice (BDF1 mice, body weight: 19-23 g). A test compound was dissolved in a physiological saline solution and administered intraperitoneally to the mice. The administration of the test compound was begun 24 hours after the inoculation of the leukemic cells and performed once a day for 5 days. The survival days of the treated mice were observed.
^a T = the mean survival days of the treated mice
C = the mean survival days of the untreated mice (control group of mice)
^b ILS(Increase in Life Span) =-
^c 60day survivors = the number of mice survived for 60 days/the

[3] = 100 mg/kg/day i.p., once a day for 5 days
[4] = Mus musculus, Ehrlich, ip, 168 h, once a day for 5 days, read-out: Inhibition ratio
[5] = 400 mg/kg/day i.p., once a day for 5 days
[6] = Mus musculus, Ehrlich, ip, 168 h
[7] = 120 h, read-out: ILS (Increase in Life Span)
[8] = 1440 h, read-out: 60-day survivors (mice survived for 60 days/mice used) (converted)

| Compound | Toxic (number of mice died/number of mice used) [1, 3] | inhibition in vivo at 3.12 mg/kg [1, 4] [%] | inhibition in vivo at 12.5 mg/kg [1, 4] [%] | inhibition in vivo at 50 mg/kg [1, 4] [%] | MTD at 168 h [2] [mg/kg/day] | Toxic (number of mice died/number of mice used) [1, 5] | Therapeutic index (MTD/MED) [1] | inhibition in vivo at 1.56 mg/kg [1, 4] [%] | inhibition in vivo at 200 mg/kg [1, 4] [%] | minimal effective dose [1, 6] [mg/kg/day] | inhibition in vivo at 0.78 mg/kg [1, 4] [%] | ILS at 6.25 mg/kg (Leukemia L-1210; [7]) [%] | ILS at 25 mg/kg (Leukemia L-1210; [7]) [%] | ILS at 50 mg/kg (Leukemia L-1210; [7]) [%] | responders at 6.25 mg/kg (Leukemia L-1210; [8]) [%] | responders at 25 mg/kg (Leukemia L-1210; [8]) [%] | responders at 50 mg/kg (Leukemia L-1210; [8]) [%] | also measured |
| --- | --- | --- | --- | --- | --- | --- | --- | --- | --- | --- | --- | --- | --- | --- | --- | --- | --- | --- |
| O=NN(CCCl)C(=O)NC1CCCCC1 [CCNU, 1-(2-chloroethyl)-1-nitroso-3-cyclohexylurea, reference compound] | 5/5 | 21.1 | 100 | 100 | 50 |  |  |  |  |  |  |  |  |  |  |  |  | inhibition in vivo at 6.25 mg/kg ([1]; Mus musculus, Ehrlich, ip, 168 h, 6.25 mg/kg/day i.p., once a day for 5 days, read-out: Inhibition ratio): 33.3% |
| COC(C)CN(C(=O)N(CCCl)N=O)C1O[C@H](CO)[C@@H](O[C@H]2O[C@H](CO)[C@@H](O)[C@H](O)[C@H]2O)[C@H](O)[C@H]1O (stereo partly drawn) [Compound 1, 1-(2-chloroethyl)-1-nitroso-3-(2-methoxy-n-propyl)-3-[O-α-D-glucopyranosyl-(1→4)-D-glucopyranosyl]urea] |  | 100 | 100 | 100 | 200 | 4/5 | 64 | 4.4 | 100 | 3.12 |  |  |  |  |  |  |  |  |
| COCC(C)N(C(=O)N(CCCl)N=O)C1O[C@H](CO)[C@@H](O[C@H]2O[C@H](CO)[C@@H](O)[C@H](O)[C@H]2O)[C@H](O)[C@H]1O (stereo partly drawn) [Compound 2, 1-(2-chloroethyl)-1-nitroso-3-(1-methyl-2-methoxy-ethyl)-3-[O-α-D-glucopyranosyl-(1→4)-D-glucopyranosyl]urea] |  | 100 | 100 | 100 | 200 | 2/5 | 128 | 100 | 100 | 1.56 | -8.6 | 85.7 | > 604 | > 757 | 0 | 75 | 100 | therapeutic index (M.T.D./M.E.D.) relative to that of GANU ([1]; Ehrlich ascites tumor, greater than that of GANU): 4 times; ILS at 100 mg/kg (Leukemia L-1210; 120 h, 100 mg/kg/day i.p., read-out: ILS (Increase in Life Span)): > 757%; responders at 100 mg/kg (Leukemia L-1210; 1440 h, 100 mg/kg/day i.p., read-out: 60-day survivors (mice survived for 60 days/mice used) (converted)): 100% |
| COCCN(C(=O)N(CCCl)N=O)C1OC[C@H](O)[C@H](O)[C@H]1O (stereo partly drawn) [Compound 3, 1-(2-chloroethyl)-1-nitroso-3-(2-methoxyethyl)-3-(L-arabinopyranosyl)urea] | 3/5 | 100 | 100 | 100 | 50 |  | 128 |  |  | 0.39 | 100 | 87.5 | > 733 | > 615 | 0 | 100 | 83.3 | inhibition in vivo at 0.09 mg/kg ([1]; Mus musculus, Ehrlich, ip, 168 h, 0.09 mg/kg/day i.p., once a day for 5 days, read-out: Inhibition ratio): 13.5%; inhibition in vivo at 0.19 mg/kg ([1]; Mus musculus, Ehrlich, ip, 168 h, 0.19 mg/kg/day i.p., once a day for 5 days, read-out: Inhibition ratio): 55.6%; inhibition in vivo at 0.39 mg/kg ([1]; Mus musculus, Ehrlich, ip, 168 h, 0.39 mg/kg/day i.p., once a day for 5 days, read-out: Inhibition ratio): 100%; ILS at 12.5 mg/kg (Leukemia L-1210; 120 h, 12.5 mg/kg/day i.p., read-out: ILS (Increase in Life Span)): > 556%; responders at 12.5 mg/kg (Leukemia L-1210; 1440 h, 12.5 mg/kg/day i.p., read-out: 60-day survivors (mice survived for 60 days/mice used) (converted)): 66.7% |

— US4241053A, “Novel nitrosourea compounds and process for preparing the same” (Tanabe Seiyaku Co., Ltd., priority 1978, dated 1980)
